These are literature values, as cited in patent publication US20220160648A1, “Composition Comprising Hydrolyzed Collagen and Cannabidiol and Use Thereof” (Inspired Health Products, LLC, priority 2019, published 2022).

For data set [1] the following is noted: reported.
For data set [2] the following is noted: ingested, dosages from at least 3 g to as much as 60 g per day.

Consider `C=C(C)[C@@H]1CCC(C)=C[C@H]1c1c(O)cc(CCCCC)cc1O` [CBD isolate, 2-[(1R,6R)-3-methyl-6-prop-1-en-2-ylcyclohex-2-en-1-yl]-5-pentylbenzene-1,3-diol], for which, in data set [1], the anticonvulsant properties entry is given as “did not”. As to `NCC(=O)O` [glycine], the effect on sleep entry in data set [2] is “beneficial effect on sleep”.
